SMILES strings stand for the structures.

The first assay has as its target T1, human APJ receptor (Homo sapiens, UniProt P35414).
T1 construct: expressed in transfected cells
T1 sequence (P35414 1-380): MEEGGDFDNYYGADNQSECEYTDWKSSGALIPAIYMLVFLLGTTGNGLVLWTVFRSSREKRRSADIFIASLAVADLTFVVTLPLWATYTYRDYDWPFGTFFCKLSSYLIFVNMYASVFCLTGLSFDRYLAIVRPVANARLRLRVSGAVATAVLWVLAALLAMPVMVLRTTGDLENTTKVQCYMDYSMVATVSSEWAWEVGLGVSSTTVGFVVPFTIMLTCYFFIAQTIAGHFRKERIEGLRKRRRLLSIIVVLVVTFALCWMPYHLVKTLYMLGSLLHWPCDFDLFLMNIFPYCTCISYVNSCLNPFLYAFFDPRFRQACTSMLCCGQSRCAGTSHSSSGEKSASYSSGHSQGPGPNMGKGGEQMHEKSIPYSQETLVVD
Put plainly: Intracellular cAMP accumulation assay (APJ hcAMP, HTRF). It counts as cell-based. The settings on record: HEK293 cells stably expressing human APJ receptor; inhibition of forskolin-mediated cAMP production; stated at end of example; read-out: Human APJ cAMP Potency Range. How it is done:
Intracellular cAMP Accumulation Assay
HEK293 cells stably expressing human APJ receptor were used to assess the activity of compounds. Cultured cells were detached and resuspended in the cAMP Homogeneous Time-Resolved Fluorescence (HTRF) assay buffer (Cisbio cat; #62AM4PEJ). The assay was performed in 384-well assay plates (Perkin-Elmer; cat #6008289) according to assay protocol provided by the manufacturer. Serial dilutions of a compound together with assay buffer containing […] IBMX and 2 μM forskolin were added to each well containing 5,000 cells and incubated for 30 minutes at room temperature. Subsequently, cAMP D2 reagent was added in the lysis buffer followed by the EuK antibody (Cisbio; cat #62AM4PEJ) and incubated for 60 min. The fluorescence emission ratio was measured using fluorometer. The intracellular cAMP concentrations (compound-stimulated inhibition of forskolin-mediated cAMP production) were calculated by extrapolation from a standard curve using known cAMP concentrations. The EC50 values were obtained by fitting the data to a sigmoidal concentration-response curve with variable slope. The maximal achievable inhibition of forskolin-induced cAMP levels (Ymax) for each compound was expressed as relative percentage of inhibition attained using pyroglutamated apelin-13 ((Pyr1)apelin-13) peptide, which was set to 100%.
The examples disclosed below were tested in the APJ in vitro assays described above and were found having human APJ cyclic AMP (hcAMP) activity. The EC50 value of each compound is presented at the end of the example description.
The biological activity of the exemplified compounds of this invention determined by the assay described above is shown at the end of each example.
On the technique in general: cAMP levels reflect the balance of adenylyl cyclase and phosphodiesterase activity.
For `CCCCc1nc(=O)c(-c2nnc(Cc3noc4ccccc34)o2)c(O)n1-c1c(C2CC2)cccc1C1CC1` [Example 27, 5-(5-(Benzo[d]isoxazol-3-ylmethyl)-1,3,4-oxadiazol-2-yl)-2-butyl-1-(2,6-dicyclopropylphenyl)-6-hydroxypyrimidin-4(1H)-one], the EC50 fell in the range of 0.01 to 10 nM.

For `CCCCc1nc(=O)c(-c2nnc(Cc3noc4ccccc34)o2)c(O)n1-c1c(C#N)cccc1C#N` [Example 28, 2-(5-(5-(Benzo[d]isoxazol-3-ylmethyl)-1,3,4-oxadiazol-2-yl)-2-butyl-6-hydroxy-4-oxopyrimidin-1 (4H)-yl)isophthalonitrile], the EC50 fell in the range of 10 to 100 nM. The same measure, in the same setting: then `CCCCc1nc(=O)c(-c2nnc(Cc3ccc(Cl)cc3)o2)c(O)n1-c1c(OC2CC2)cccc1OC1CC1` [Example 29, 2-butyl-5-(5-(4-chlorobenzyl)-1,3,4-oxadiazol-2-yl)-1-(2,6-dicyclopropoxyphenyl)-6-hydroxypyrimidin-4(1H)-one], with 10 to 100 nM.

Turning to `CCCCc1nc(O)c(-c2cnn(Cc3ccccc3)c2)c(=O)n1-c1c(OC)cccc1OC` [Example 31, 5-(1-benzyl-1H-pyrazol-4-yl)-2-butyl-3-(2,6-dimethoxyphenyl)-6-hydroxypyrimidin-4(3H)-one], the EC50 is 0.01 to 10 nM. For `CCOCc1nc(=O)c(-c2nnc(Cc3noc4ccccc34)o2)c(O)n1-c1c(OC)cccc1OC` [Example 33, 5-(5-(benzo[d]isoxazol-3-ylmethyl)-1,3,4-oxadiazol-2-yl)-1-(2,6-dimethoxyphenyl)-6-hydroxy-2-(ethoxymethyl)pyrimidin-4(1H)-one], the EC50 fell in the range of 0.01 to 10 nM.

For `COc1cccc(OC)c1-n1c(CCC2CC2)nc(=O)c(-c2nnc(Cc3noc4ccccc34)o2)c1O` [Example 42, 5-(5-(benzo[d]isoxazol-3-ylmethyl)-1,3,4-oxadiazol-2-yl)-2-(2-cyclopropylethyl)-1-(2,6-dimethoxyphenyl)-6-hydroxypyrimidin-4(1H)-one], the EC50 lay within 0.01 to 10 nM.

Staying with this assay, now noted: Table 1; HEK293 cells stably expressing human APJ receptor; read-out: hAPJ cAMP EC50 Potency range.
As to `CCCCc1nc(=O)c(-c2nnc(Cc3noc4ccccc34)o2)c(O)n1-c1c(OC(C)C)cccc1OC(C)C` [Example 24, 5-[5-(1,2-benzoxazol-3-ylmethyl)-1,3,4-oxadiazol-2-yl]-1-[2,6-bis(propan-2-yloxy)phenyl]-2-butyl-6-hydroxy-1,4-dihydropyrimidin-4-one], the EC50 is 100 to 300 nM.

Consider `CCCCc1nc(=O)c(-c2nnc(Cc3csc(C)n3)o2)c(O)n1-c1c(OCC)cccc1OCC` [Example 25, 2-butyl-1-(2,6-diethoxyphenyl)-6-hydroxy-5-{5-[(2-methyl-1,3-thiazol-4-yl)methyl]-1,3,4-oxadiazol-2-yl}-1,4-dihydropyrimidin-4-one], for which the EC50 lay in the range of 0.01 to 10 nM. Still for that read-out and setting: then `CCCCc1nc(=O)c(-c2nnc(Cc3ccc(Cl)cc3)o2)c(O)n1-c1c(OCC)cccc1OCC` [Example 26, 2-butyl-5-{5-[(4-chlorophenyl)methyl]-1,3,4-oxadiazol-2-yl}-1-(2,6-diethoxyphenyl)-6-hydroxy-1,4-dihydropyrimidin-4-one], with 0.01 to 10 nM; and `CCCCc1nc(=O)c(-c2nnc(Cc3noc4ccccc34)o2)c(O)n1-c1c(OC2CC2)cccc1OC1CC1` [Example 30, 5-[5-(1,2-benzoxazol-3-ylmethyl)-1,3,4-oxadiazol-2-yl]-2-butyl-1-(2,6-dicyclopropoxyphenyl)-6-hydroxy-1,4-dihydropyrimidin-4-one], with 0.01 to 10 nM. Same read-out and setting: in the case of `CCCCc1nc(O)c(-c2cnn(Cc3ccc(Cl)cc3)c2)c(=O)n1-c1c(OC)cccc1OC` [Example 32, 2-butyl-5-{1-[(4-chlorophenyl)methyl]-1H-pyrazol-4-yl}-3-(2,6-dimethoxyphenyl)-6-hydroxy-3,4-dihydropyrimidin-4-one] it was 0.01 to 10 nM. Same read-out and setting: then `COc1cccc(OC)c1-n1c(COC(C)C)nc(=O)c(-c2nnc(Cc3noc4ccccc34)o2)c1O` [Example 34, 5-[5-(1,2-benzoxazol-3-ylmethyl)-1,3,4-oxadiazol-2-yl]-1-(2,6-dimethoxyphenyl)-6-hydroxy-2-[(propan-2-yloxy)methyl]-1,4-dihydropyrimidin-4-one], with 0.01 to 10 nM; and `CCOCc1nc(=O)c(-c2nnc(Cc3noc4ccccc34)o2)c(O)n1-c1c(CC)cccc1CC` [Example 35, 5-[5-(1,2-benzoxazol-3-ylmethyl)-1,3,4-oxadiazol-2-yl]-1-(2,6-diethylphenyl)-2-(ethoxymethyl)-6-hydroxy-1,4-dihydropyrimidin-4-one], with 0.01 to 10 nM.

`COc1cccc(OC)c1-n1c(COC(C)C)nc(=O)c(-c2nnc(Cc3ccc(Cl)cc3)o2)c1O` [Example 36, 5-{5-[(4-chlorophenyl)methyl]-1,3,4-oxadiazol-2-yl}-1-(2,6-dimethoxyphenyl)-6-hydroxy-2-[(propan-2-yloxy)methyl]-1,4-dihydropyrimidin-4-one]: the EC50 is 0.01 to 10 nM. In the case of `CCOCc1nc(=O)c(-c2nnc(Cc3ccc(Cl)cc3)o2)c(O)n1-c1c(CC)cccc1CC` [Example 37, 5-{5-[(4-chlorophenyl)methyl]-1,3,4-oxadiazol-2-yl}-1-(2,6-diethylphenyl)-2-(ethoxymethyl)-6-hydroxy-1,4-dihydropyrimidin-4-one], the EC50 was 0.01 to 10 nM. Turning to `CCOCc1nc(=O)c(-c2nnc(Cc3ccc(Cl)c(F)c3)o2)c(O)n1-c1c(OC)cccc1OC` [Example 38, 5-{5-[(4-chloro-3-fluorophenyl)methyl]-1,3,4-oxadiazol-2-yl}-1-(2,6-dimethoxyphenyl)-2-(ethoxymethyl)-6-hydroxy-1,4-dihydropyrimidin-4-one], the EC50 was in the range of 0.01 to 10 nM. In the case of `CCOCc1nc(=O)c(-c2nnc(Cc3csc(-c4ccccc4)n3)o2)c(O)n1-c1c(OC)cccc1OC` [Example 39, 1-(2,6-dimethoxyphenyl)-2-(ethoxymethyl)-6-hydroxy-5-{5-[(2-phenyl-1,3-thiazol-4-yl)methyl]-1,3,4-oxadiazol-2-yl}-1,4-dihydropyrimidin-4-one], the EC50 is 10 to 100 nM. The same measure, in the same setting: in the case of `CCOCc1nc(=O)c(-c2nnc(Cc3ccc(Cl)cc3)o2)c(O)n1-c1c(OC)cccc1OC` [Example 40, 5-{5-[(4-chlorophenyl)methyl]-1,3,4-oxadiazol-2-yl}-1-(2,6-dimethoxyphenyl)-2-(ethoxymethyl)-6-hydroxy-1,4-dihydropyrimidin-4-one] it was 0.01 to 10 nM; in that of `CC(C)OCc1nc(=O)c(-c2nnc(Cc3noc4ccccc34)o2)c(O)n1-c1c(C2CC2)cccc1C1CC1` [Example 41, 5-[5-(1,2-benzoxazol-3-ylmethyl)-1,3,4-oxadiazol-2-yl]-1-(2,6-dicyclopropylphenyl)-6-hydroxy-2-[(propan-2-yloxy)methyl]-1,4-dihydropyrimidin-4-one], 0.01 to 10 nM. The same measure, in the same setting: then `COc1cccc(OC)c1-n1c(CCC2CC2)nc(=O)c(-c2nnc(CN3CCCC3=O)o2)c1O` [Example 43, 2-(2-cyclopropylethyl)-1-(2,6-dimethoxyphenyl)-6-hydroxy-5-{5-[(2-oxopyrrolidin-1-yl)methyl]-1,3,4-oxadiazol-2-yl}-1,4-dihydropyrimidin-4-one], with 0.01 to 10 nM.

Consider `COc1cccc(OC)c1-n1c(CCC2CC2)nc(=O)c(-c2nnc(Cc3csc(C)n3)o2)c1O` [Example 44, 2-(2-cyclopropylethyl)-1-(2,6-dimethoxyphenyl)-6-hydroxy-5-{5-[(2-methyl-1,3-thiazol-4-yl)methyl]-1,3,4-oxadiazol-2-yl}-1,4-dihydropyrimidin-4-one], for which the EC50 was 0.01 to 10 nM. Still for that read-out and setting: then `COc1cccc(OC)c1-n1c(CCC2CC2)nc(=O)c(-c2nnc(Cc3ccc(Cl)cc3)o2)c1O` [Example 45, 5-{5-[(4-chlorophenyl)methyl]-1,3,4-oxadiazol-2-yl}-2-(2-cyclopropylethyl)-1-(2,6-dimethoxyphenyl)-6-hydroxy-1,4-dihydropyrimidin-4-one], with 0.01 to 10 nM; and `COc1cccc(OC)c1-n1c(CCC2CC2)nc(=O)c(-c2nnc(Cn3ccccc3=O)o2)c1O` [Example 46, 2-(2-cyclopropylethyl)-1-(2,6-dimethoxyphenyl)-6-hydroxy-5-{5-[(2-oxo-1,2-dihydropyridin-1-yl)methyl]-1,3,4-oxadiazol-2-yl}-1,4-dihydropyrimidin-4-one], with 0.01 to 10 nM; and `COc1cccc(OC)c1-n1c(CCC2CC2)nc(=O)c(-c2nnc(CN3CCOCC3=O)o2)c1O` [Example 47, 4-({5-[2-(2-cyclopropylethyl)-1-(2,6-dimethoxyphenyl)-6-hydroxy-4-oxo-1,4-dihydropyrimidin-5-yl]-1,3,4-oxadiazol-2-yl}methyl)morpholin-3-one], with 0.01 to 10 nM.

For the origin of these results see patent US10669261B2, “Heteroarylhydroxypyrimidinones as agonists of the APJ receptor” (BRISTOL-MYERS SQUIBB COMPANY, priority 2015, dated 2020).
